From patent US20080096967A1, “Formulations for Injection of Catecholic Butanes, Including Ndga Compounds, Into Animals” (priority 2005, published 2008)

Assay: Solubility of M4N in water-insoluble lipids (visual inspection)
Type: physicochemical

COc1ccc(C[C@@H](C)[C@@H](C)Cc2ccc(OC)c(OC)c2)cc1OC [Formulation M4N, meso-1,4-bis(3,4-dimethoxyphenyl)-2,3-dimethylbutane]
Y at 40 °C: Dissolution After Heating (33% Peppermint Oil, 33% Tween ® 20, 33% PEG 400, M4N 60 mg/mL, 40° C.) | Dissolution After Heating (40% Peppermint Oil, 40% PEG 400, 20% Glycerol, M4N 52 mg/mL, 40° C.) | Dissolution After Heating (45% Peppermint Oil, 45% PEG 400, 10% Glycerol, M4N 59 mg/mL, 40° C.) | Dissolution After Heating (50% Peppermint Oil, 50% PEG 400, M4N 40 mg/mL, 40° C.) | Dissolution After Heating (50% Peppermint Oil, 50% PEG 400, M4N 60 mg/mL, 40° C.) | Dissolution After Heating (50% Peppermint Oil, 50% PEG 400, M4N 100 mg/mL, 40° C.) | Dissolution After Heating (50% Peppermint Oil, 50% PEG 400, M4N 125 mg/mL, 40° C.) | Dissolution After Heating (50% Peppermint Oil, 50% Sesame Oil, M4N 40 mg/mL, 40° C.) | Dissolution After Heating (50% Peppermint Oil, 50% Sesame Oil, M4N 60 mg/mL, 40° C.) | Dissolution After Heating (50% Peppermint Oil, 50% Tween ® 20, M4N 40 mg/mL, 40° C.) | Dissolution After Heating (50% Peppermint Oil, 50% Tween ® 20, M4N 60 mg/mL, 40° C.) | Dissolution After Heating (50% Peppermint Oil, 50% Tween ® 20, M4N 125 mg/mL, 40° C.) | Dissolution After Heating (60% Peppermint Oil, 40% PEG 300, M4N 60 mg/mL, 40° C.) | Dissolution After Heating (60% Peppermint Oil, 40% PEG 400, M4N 60 mg/mL, 40° C.)
>3 days: Stability Time at Room Temperature (33% Peppermint Oil, 33% Tween ® 20, 33% PEG 400, M4N 60 mg/mL) | Stability Time at Room Temperature (50% Peppermint Oil, 50% Sesame Oil, M4N 20 mg/mL) | Stability Time at Room Temperature (50% Peppermint Oil, 50% Sesame Oil, M4N 40 mg/mL) | Stability Time at Room Temperature (50% Peppermint Oil, 50% Sesame Oil, M4N 60 mg/mL) | Stability Time at Room Temperature (50% Peppermint Oil, 50% Tween ® 20, M4N 40 mg/mL) | Stability Time at Room Temperature (50% Peppermint Oil, 50% Tween ® 20, M4N 60 mg/mL) | Stability Time at Room Temperature (60% Peppermint Oil, 40% PEG 300, M4N 60 mg/mL) | Stability Time at Room Temperature (100% Corn Oil, M4N 1 mg/mL) | Stability Time at Room Temperature (100% Corn Oil, M4N 10 mg/mL)
<3 days: Stability Time at Room Temperature (100% Corn Oil, M4N 20 mg/mL) | Stability Time at Room Temperature (100% Corn Oil, M4N 40 mg/mL) | Stability Time at Room Temperature (100% Corn Oil, M4N 50 mg/mL)
did not stay in solution: solution upon cooling (85% sesame oil and 15% Tween® 20, M4N 60 mg/mL (55° C.) and 40 mg/mL (45° C.))
<7 days: Stability Time at Room Temperature (75% Sesame Oil, 9% Tween ® 20, 16% Glycerol, M4N 24.3 mg/mL)
Y at 60 °C: Dissolution After Heating (75% Sesame Oil, 9% Tween ® 20, 16% Glycerol, M4N 24.3 mg/mL, 60° C.) | Dissolution After Heating (89% Sesame Oil, 11% Tween ® 20, M4N 29 mg/mL, 60° C.) | Dissolution After Heating (100% Corn Oil, M4N 1 mg/mL, 60° C.) | Dissolution After Heating (100% Corn Oil, M4N 10 mg/mL, 60° C.) | Dissolution After Heating (100% Corn Oil, M4N 20 mg/mL, 60° C.) | Dissolution After Heating (100% Corn Oil, M4N 40 mg/mL, 60° C.) | Dissolution After Heating (100% Corn Oil, M4N 50 mg/mL, 60° C.) | Dissolution After Heating (100% Corn Oil, M4N 60 mg/mL, 60° C.) | Dissolution After Heating (100% Corn Oil, M4N 100 mg/mL, 60° C.) | Dissolution After Heating (100% Mineral Oil, M4N 10 mg/mL, 60° C.) | Dissolution After Heating (100% Mineral Oil, M4N 50 mg/mL, 60° C.) | Dissolution After Heating (100% Mineral Oil, M4N 100 mg/mL, 60° C.) | Dissolution After Heating (100% Mineral Oil, M4N 200 mg/mL, 60° C.)
Y at 45 °C: Dissolution After Heating (85% Sesame Oil, 15% Tween ® 20, M4N 40 mg/mL, 45° C.)
Y at 55 °C: Dissolution After Heating (85% Sesame Oil, 15% Tween ® 20, M4N 60 mg/mL, 55° C.)
>7 days: Stability Time at Room Temperature (50% Peppermint Oil, 50% PEG 300, M4N 40 mg/mL) | Stability Time at Room Temperature (50% Peppermint Oil, 50% PEG 300, M4N 60 mg/mL) | Stability Time at Room Temperature (50% Peppermint Oil, 50% PEG 400, M4N 40 mg/mL) | Stability Time at Room Temperature (50% Peppermint Oil, 50% PEG 400, M4N 60 mg/mL) | Stability Time at Room Temperature (89% Sesame Oil, 11% Tween ® 20, M4N 29 mg/mL) | Stability Time at Room Temperature (100% Mineral Oil, M4N 10 mg/mL)
Y at 35 °C: Dissolution After Heating (50% Peppermint Oil, 50% PEG 300, M4N 40 mg/mL, 35° C.) | Dissolution After Heating (50% Peppermint Oil, 50% PEG 300, M4N 60 mg/mL, 35° C.) | Dissolution After Heating (50% Peppermint Oil, 50% PEG 300, M4N 125 mg/mL, 35° C.)
Y at 70 °C: Dissolution After Heating (80% Olive Oil, 20% Soybean Oil, M4N 60 mg/mL, 70° C.)
<1 days: Stability Time at Room Temperature (100% Corn Oil, M4N 60 mg/mL) | Stability Time at Room Temperature (100% Mineral Oil, M4N 50 mg/mL)
